{"source": "patent US11504355B2", "about": "“Ergothioneine compositions and methods for maintaining and/or increasing vitamin C levels in cells and organisms” (Mironova Innovations, LLC, priority 2018, dated 2022)", "test_system": "Human skin fibroblasts", "experiment": "Ascorbic acid colorimetric assay in human skin fibroblasts, with or without alloxan-induced oxidative stress", "format": "cell-based", "experimental": "This example provides methods and results from studies evaluating the effect of ergothioneine on vitamin C in human fibroblast cells. Human skin fibroblasts were cultured for 18 hours in T-25 flasks. Cells were incubated with 1) control solution, 2) magnesium ascorbyl phosphate, or 3) magnesium ascorbyl phosphate+ergothioneine (1:100). Cells in each group were then treated for 6 hours with a) control solution or b) 500 μM alloxan to induce oxidative stress. All samples were assayed for ascorbic acid with an ascorbic acid colorimetric assay (Biovision catalog no. K671). Results are provided in the table below, where ascorbic acid content (nmol) in human skin fibroblasts per one million cells is reported.", "key": {"[1]": {"settings": "0.158% of test solution, no alloxan"}, "[2]": {"settings": "0.158% of test solution, with 500 uM Alloxan (6 hours, oxidative stress)"}, "[3]": {"settings": "0.5% of test solution, no alloxan"}, "[4]": {"settings": "0.5% of test solution, with 500 uM Alloxan (6 hours, oxidative stress)"}, "[5]": {"settings": "1.58% of test solution, no alloxan"}, "[6]": {"settings": "1.58% of test solution, with 500 uM Alloxan (6 hours, oxidative stress)"}, "[7]": {"settings": "5% of test solution, no alloxan"}, "[8]": {"settings": "5% of test solution, with 500 uM Alloxan (6 hours, oxidative stress)"}}, "data": [{"smiles": "O=C1O[C@H]([C@@H](O)CO)C([O-])=C1OP(=O)([O-])[O-].O=C1O[C@H]([C@@H](O)CO)C([O-])=C1OP(=O)([O-])[O-].[Mg+2].[Mg+2].[Mg+2]", "note": "[MAP solution, magnesium ascorbyl phosphate]", "values": [{"measurement": "ascorbic acid content in human skin fibroblasts per one million cells, Ave", "setting": "[1]", "value": 10.14, "unit": "nmol"}, {"measurement": "ascorbic acid content in human skin fibroblasts per one million cells, Sample A", "setting": "[1]", "value": 9.94, "unit": "nmol"}, {"measurement": "ascorbic acid content in human skin fibroblasts per one million cells, Sample B", "setting": "[1]", "value": 10.34, "unit": "nmol"}, {"measurement": "ascorbic acid content in human skin fibroblasts per one million cells, Ave", "setting": "[2]", "value": 4.93, "unit": "nmol"}, {"measurement": "ascorbic acid content in human skin fibroblasts per one million cells, Sample A", "setting": "[2]", "value": 4.84, "unit": "nmol"}, {"measurement": "ascorbic acid content in human skin fibroblasts per one million cells, Sample B", "setting": "[2]", "value": 5.01, "unit": "nmol"}, {"measurement": "ascorbic acid content in human skin fibroblasts per one million cells, Ave", "setting": "[3]", "value": 21.51, "unit": "nmol"}, {"measurement": "ascorbic acid content in human skin fibroblasts per one million cells, Sample A", "setting": "[3]", "value": 21.68, "unit": "nmol"}, {"measurement": "ascorbic acid content in human skin fibroblasts per one million cells, Sample B", "setting": "[3]", "value": 21.33, "unit": "nmol"}, {"measurement": "ascorbic acid content in human skin fibroblasts per one million cells, Ave", "setting": "[4]", "value": 9.77, "unit": "nmol"}, {"measurement": "ascorbic acid content in human skin fibroblasts per one million cells, Sample A", "setting": "[4]", "value": 9.54, "unit": "nmol"}, {"measurement": "ascorbic acid content in human skin fibroblasts per one million cells, Sample B", "setting": "[4]", "value": 9.99, "unit": "nmol"}, {"measurement": "ascorbic acid content in human skin fibroblasts per one million cells, Ave", "setting": "[5]", "value": 49.89, "unit": "nmol"}, {"measurement": "ascorbic acid content in human skin fibroblasts per one million cells, Sample A", "setting": "[5]", "value": 49.23, "unit": "nmol"}, {"measurement": "ascorbic acid content in human skin fibroblasts per one million cells, Sample B", "setting": "[5]", "value": 50.54, "unit": "nmol"}, {"measurement": "ascorbic acid content in human skin fibroblasts per one million cells, Ave", "setting": "[6]", "value": 12.17, "unit": "nmol"}, {"measurement": "ascorbic acid content in human skin fibroblasts per one million cells, Sample A", "setting": "[6]", "value": 11.88, "unit": "nmol"}, {"measurement": "ascorbic acid content in human skin fibroblasts per one million cells, Sample B", "setting": "[6]", "value": 12.46, "unit": "nmol"}, {"measurement": "ascorbic acid content in human skin fibroblasts per one million cells, Ave", "setting": "[7]", "value": 50.77, "unit": "nmol"}, {"measurement": "ascorbic acid content in human skin fibroblasts per one million cells, Sample A", "setting": "[7]", "value": 50.20, "unit": "nmol"}, {"measurement": "ascorbic acid content in human skin fibroblasts per one million cells, Sample B", "setting": "[7]", "value": 51.35, "unit": "nmol"}, {"measurement": "ascorbic acid content in human skin fibroblasts per one million cells, Ave", "setting": "[8]", "value": 13.37, "unit": "nmol"}, {"measurement": "ascorbic acid content in human skin fibroblasts per one million cells, Sample A", "setting": "[8]", "value": 13.37, "unit": "nmol"}, {"measurement": "ascorbic acid content in human skin fibroblasts per one million cells, Sample B", "setting": "[8]", "value": 13.37, "unit": "nmol"}]}, {"smiles": "C[N+](C)(C)[C@@H](Cc1c[nH]c(=S)[nH]1)C(=O)[O-]", "note": "[ergothioneine]", "values": [{"measurement": "increase of ascorbic acid levels following oxidative stress", "setting": "1:100 ergothioneine (EGT) to magnesium ascorbyl phosphate (MAP), following oxidative stress", "value": "up to 300%"}, {"measurement": "ascorbic acid absorbed by the fibroblast cells with versus without ergothioneine", "setting": "FIG. 1, no oxidative stress", "value": "equally absorbed"}, {"measurement": "amount of ascorbic acid in fibroblast cells following oxidative stress in the presence of ergothioneine", "setting": "FIG. 3, following oxidative stress", "value": "synergistically increased"}, {"measurement": "boost of vitamin C levels in a cell", "setting": "synergistic amount of ergothioneine, summary of the examples", "value": "three-fold or more"}]}]}
